# Measured values published in ChEMBL document CHEMBL1136483, “Synthesis and antiviral evaluation of 3-hydroxy-2-methylpyridin-4-one dideoxynucleoside derivatives” (Bioorg Med Chem Lett, 2003).
# Tested on: CCRF-CEM
# Experiment: Compound was tested for anti-viral activity against HIV-1 in CEM cells
# Type: functional, cell-based
# Settings: Homo sapiens
row,SMILES,EC50 [µM]
1,Cc1c(O)c(=O)ccn1[C@H]1CC[C@@H](CO)O1,> 50
2,Cc1c(O)c(=O)ccn1[C@@H]1CC[C@@H](CO)O1,> 50
3,Cc1c(O)c(=O)ccn1[C@@H]1CS[C@@H](CO)O1 (racemic),> 80
4,Cc1c(O)c(=O)ccn1[C@H]1CS[C@@H](CO)O1 (racemic),> 80
5,Nc1nc2c(ncn2COCCO)c(=O)[nH]1 [ACYCLOVIR],> 200
6,Nc1ccn(C[C@@H](CO)OCP(=O)(O)O)c(=O)n1 [CIDOFOVIR],> 200
7,Nc1nc2c(ncn2COC(CO)CO)c(=O)[nH]1 [GANCICLOVIR],> 200

# Tested on: CCRF-CEM
# Experiment: Compound was tested for anti-viral activity against HIV-2 in CEM cells
# Type: functional, cell-based
# Settings: Homo sapiens
row,SMILES,EC50 [µM]
1,Cc1c(O)c(=O)ccn1[C@H]1CC[C@@H](CO)O1,> 50
2,Cc1c(O)c(=O)ccn1[C@@H]1CC[C@@H](CO)O1,> 50
3,Cc1c(O)c(=O)ccn1[C@@H]1CS[C@@H](CO)O1 (racemic),> 80
4,Cc1c(O)c(=O)ccn1[C@H]1CS[C@@H](CO)O1 (racemic),> 80
5,Nc1nc2c(ncn2COCCO)c(=O)[nH]1 [ACYCLOVIR],> 200
6,Nc1ccn(C[C@@H](CO)OCP(=O)(O)O)c(=O)n1 [CIDOFOVIR],> 200
7,Nc1nc2c(ncn2COC(CO)CO)c(=O)[nH]1 [GANCICLOVIR],> 200

# Tested on: CCRF-CEM
# Experiment: Compound concentration required to reduce viability of CEM cells
# Type: functional
# Settings: Homo sapiens
row,SMILES,CC50 [µM]
1,Cc1c(O)c(=O)ccn1[C@H]1CC[C@@H](CO)O1,101
2,Cc1c(O)c(=O)ccn1[C@@H]1CC[C@@H](CO)O1,> 50
3,Cc1c(O)c(=O)ccn1[C@@H]1CS[C@@H](CO)O1 (racemic),203
4,Cc1c(O)c(=O)ccn1[C@H]1CS[C@@H](CO)O1 (racemic),203
5,Nc1nc2c(ncn2COCCO)c(=O)[nH]1 [ACYCLOVIR],> 200
6,Nc1ccn(C[C@@H](CO)OCP(=O)(O)O)c(=O)n1 [CIDOFOVIR],> 200
7,Nc1nc2c(ncn2COC(CO)CO)c(=O)[nH]1 [GANCICLOVIR],> 200

# Tested on: HEL
# Experiment: Compound concentration required to reduce viability of HEL cells
# Type: functional
# Settings: Homo sapiens
row,SMILES,CC50 [µM]
1,Cc1c(O)c(=O)ccn1[C@H]1CC[C@@H](CO)O1,> 900
2,Cc1c(O)c(=O)ccn1[C@@H]1CC[C@@H](CO)O1,> 900
3,Cc1c(O)c(=O)ccn1[C@@H]1CS[C@@H](CO)O1 (racemic),> 400
4,Cc1c(O)c(=O)ccn1[C@H]1CS[C@@H](CO)O1 (racemic),> 100
5,Nc1nc2c(ncn2COCCO)c(=O)[nH]1 [ACYCLOVIR],> 1700
6,Nc1ccn(C[C@@H](CO)OCP(=O)(O)O)c(=O)n1 [CIDOFOVIR],> 350
7,Nc1nc2c(ncn2COC(CO)CO)c(=O)[nH]1 [GANCICLOVIR],> 400

# Tested on: HEL
# Experiment: Compound was tested for anti-viral activity against HSV-1(KOS) in HEL cells
# Type: functional, cell-based
# Settings: Homo sapiens
row,SMILES,EC50 [µM]
1,Cc1c(O)c(=O)ccn1[C@H]1CC[C@@H](CO)O1,40
2,Cc1c(O)c(=O)ccn1[C@@H]1CC[C@@H](CO)O1,177
3,Cc1c(O)c(=O)ccn1[C@@H]1CS[C@@H](CO)O1 (racemic),40
4,Cc1c(O)c(=O)ccn1[C@H]1CS[C@@H](CO)O1 (racemic),32
5,Nc1nc2c(ncn2COCCO)c(=O)[nH]1 [ACYCLOVIR],0.32
6,Nc1ccn(C[C@@H](CO)OCP(=O)(O)O)c(=O)n1 [CIDOFOVIR],0.57

# Tested on: HEL
# Experiment: Compound was tested for anti-viral activity against HSV-1TK neg in HEL cells
# Type: functional, cell-based
# Settings: Homo sapiens
row,SMILES,EC50 [µM]
1,Cc1c(O)c(=O)ccn1[C@H]1CC[C@@H](CO)O1,500
2,Cc1c(O)c(=O)ccn1[C@@H]1CC[C@@H](CO)O1,500
3,Cc1c(O)c(=O)ccn1[C@@H]1CS[C@@H](CO)O1 (racemic),95
4,Cc1c(O)c(=O)ccn1[C@H]1CS[C@@H](CO)O1 (racemic),80
5,Nc1nc2c(ncn2COCCO)c(=O)[nH]1 [ACYCLOVIR],88

# Tested on: Human herpesvirus 2 (Herpes simplex virus type 2)
# Experiment: Compound was tested for anti-viral activity against HSV-2(G) in HEL cells
# Settings: not given
row,SMILES,EC50 [µM]
1,Cc1c(O)c(=O)ccn1[C@H]1CC[C@@H](CO)O1,> 900
2,Cc1c(O)c(=O)ccn1[C@@H]1CC[C@@H](CO)O1,500
3,Cc1c(O)c(=O)ccn1[C@@H]1CS[C@@H](CO)O1 (racemic),90
4,Cc1c(O)c(=O)ccn1[C@H]1CS[C@@H](CO)O1 (racemic),81
5,Nc1nc2c(ncn2COC(CO)CO)c(=O)[nH]1 [GANCICLOVIR],0.06
